Measured values as given in patent publication US5994366A, “Tetrahydroimidazo[2,1-A]isoquinoline derivatives” (Akzo Nobel NV, priority 1997, dated 1999).
Where a name gives a salt, the structure may show the parent alone.

What was measured:
Type in all cases: biochemical
Conditions in all cases: in vitro
[1] = target: noradrenaline reuptake; assay: noradrenaline (NUP) reuptake blockade
Description: (§1) Measurement of dopamine (DUP), serotonin (SUP) and noradrenaline NUP) reuptake blockade was carried out using the methods described in Neuropharmacology Vol. 27, No. 3, pp. 251-260, 1988 and results are presented in Table 1 below.

[2] = target: dopamine reuptake; assay: dopamine (DUP) reuptake blockade
Description: as §1

[3] = target: serotonin reuptake; assay: serotonin (SUP) reuptake blockade
Description: as §1

Structure (SMILES) | NUP (pKi) [1] | DUP (pKi) [2] | SUP (pKi) [3]
Cc1ccc(C2CN3CCN=C3c3ccccc32)cc1 (racemic) [Example 2c, (rac)-2,3,5,6-Tetrahydro-6-(4-methylphenyl)imidazo[2,1-a]isoguinoline (Z)-2-butenedioate (1:1) salt] | 7.75 | 7.05 | 6.9
Clc1ccc(C2CN3CCN=C3c3ccccc32)cc1 (single isomer, unassigned; (+)) [Example 4, (+)-6-(4-Chlorophenyl)-2,3,5,6-tetrahydroimidazo[2,1-a]isoquinoline (E)-2-butenedioate (1:1) salt] | 8.15 | 7.2 | 7.0
Cl.Clc1ccc(C2CN3CCN=C3c3ccccc32)cc1 (racemic) [Example 2a, (rac)6-(4-chlorophenyl)-2,3,5,6-tetrahydroimidazo[2,1-a]isoquinoline hydrochloride] | 7.9 | 7.15 | 7.4
Fc1ccc(C2CN3CCN=C3c3ccccc32)cc1 (single isomer, unassigned; (+)) [Example 7, (+)-6-(4-Fluorophenyl)-2,3,5,6-tetrahydroimidazo[2,1-a]isoquinoline (E)-2-butenedioate (1:1) salt] | 7.75 | 6.45 | 6.25
Clc1ccc(C2CN3CCN=C3c3ccccc32)cc1 (single isomer, unassigned; (-)) [Example 3, (-)-6-(4-chlorophenyl)-2,3,5,6-tetrahydroimidazo[2,1-a]isoquinoline (E)-2-butenedioate (1:1) salt] | 8.1 | 7.15 | 7.3
Fc1ccc(C2CN3CCN=C3c3ccccc32)cc1 (single isomer, unassigned; (-)) [Example 6, (-)-6-(4-fluorophenyl)-2,3,5,6-tetrahydroimidazo[2,1-a]isoquinoline (E)-2-butenedioate (1:1) salt] | 7.5 | 6.6 | 7.9
Fc1ccc(C2CN3CCN=C3c3ccccc32)cc1 (racemic) [Example 2b, (rac)-6-(4-Fluorophenyl)-2,3,5,6-tetrahydroimidazo[2,1-a]isoquinoline] | 7.65 | 6.5 | 7.5
